From ChEMBL document CHEMBL2176966, “Discovery of 6,7-dihydro-5H-pyrrolo[2,3-a]pyrimidines as orally available G protein-coupled receptor 119 agonists” (J Med Chem, 2012) come the findings set out here.

The source made the active and inactive calls. No cut-off for these calls is given here.

The subject of one series is Rattus norvegicus. The experiment in a line: Dose normalized AUC (0 to 24 hrs) in rat at 30 mg/kg. The class given is ADME, organism-based. Set-up: dose 30 mg/kg. The conditions noted are these: in vivo.
For `CC(C)OC(=O)N1CCC(Oc2ncnc3c2CCN3c2ccc(C#N)cc2F)CC1`, the AUC/dose was over 1 µg·h/mL.

The next series concerns the target T1, Glucose-dependent insulinotropic receptor (Homo sapiens, UniProt Q8TDV5).
T1 sequence (Q8TDV5 whole entry): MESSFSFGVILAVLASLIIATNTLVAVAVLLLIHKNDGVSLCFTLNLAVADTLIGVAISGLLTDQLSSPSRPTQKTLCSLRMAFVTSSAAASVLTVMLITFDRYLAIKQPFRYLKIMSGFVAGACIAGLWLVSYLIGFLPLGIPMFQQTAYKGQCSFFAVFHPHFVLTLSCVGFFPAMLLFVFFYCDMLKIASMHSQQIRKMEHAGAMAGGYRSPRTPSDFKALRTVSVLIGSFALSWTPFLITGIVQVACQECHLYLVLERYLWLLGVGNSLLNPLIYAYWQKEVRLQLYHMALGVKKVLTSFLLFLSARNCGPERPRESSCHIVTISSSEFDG
The experiment in a line: Agonist activity at human GPR119 receptor expressed in CHO-K1 cells co-expressing 6CRE-luciferase gene after 5 hrs by luciferase reporter gene assay. The class given is functional, cell-based. The note with it: cho-k1. On the technique in general: A reporter such as luciferase makes a cellular process visible.
As a reminder, the pEC50 is the EC50 on a negative log10 scale, so that one unit is a factor of ten. On to `CC(C)OC(=O)N1CCC(Oc2ncnc3c2CC(C)N3c2ccc(S(C)(=O)=O)cc2F)CC1` (single isomer, unassigned; (+)), for which the pEC50 is on record as under 5.

The series is the same for the next values; noted with them: read-out: EC50.
As to `O=[N+]([O-])c1c(Nc2ccc(-n3cncn3)cc2)ncnc1N1CCC(Sc2ccccn2)CC1`, the EC50 was 200 nM.

The same series, now with this note: read-out: pEC50 (converted).
On to `CC(C)OC(=O)N1CCC(Oc2ncnc3c2CCN3c2ccc(S(C)(=O)=O)nc2)CC1`, for which the EC50 is 251 nM.

As for `CS(=O)(=O)c1ccc(N2CCc3c(OC4CCN(C5=NCCCN5)CC4)ncnc32)c(F)c1`, the EC50 is 2000 nM.

For `CS(=O)(=O)c1ccc(N2CCc3c(OC4CCN(C(=S)Sc5ccccc5)CC4)ncnc32)c(F)c1`, the EC50 is 12.6 nM.

`CC(C)(C)COC(=O)N1CCC(Oc2ncnc3c2CCN3c2ccc(S(C)(=O)=O)cc2F)CC1`: the EC50 is 39.8 nM.

`N#CN1CCC(O)CC1`: the EC50 is 316 nM.

Consider `COC(=O)N1CCC(Oc2ncnc3c2CCN3c2ccc(S(C)(=O)=O)cc2F)CC1`, for which the EC50 is 316 nM.

For the compound `CC(C)COC(=O)N1CCC(Oc2ncnc3c2CCN3c2ccc(S(C)(=O)=O)cc2F)CC1`, the EC50 was 25.1 nM.

Consider `CC(C)c1noc(N2CCC(O)CC2)n1`, for which the EC50 was 50.1 nM.

For `Cc1ncccc1N1CCc2c(OC3CCN(C(=O)OC(C)C)CC3)ncnc21`, the EC50 is over 10000 nM.

`CC(C)OC(=O)N1CCC(Oc2ncnc3c2CCN3c2ccc(F)cn2)CC1`: the EC50 is over 10000 nM.

As for `CN(C)S(=O)(=O)N1CCC(Oc2ncnc3c2CCN3c2ccc(S(C)(=O)=O)cc2F)CC1`, the EC50 was 398 nM.

Regarding `CC(C)S(=O)(=O)N1CCC(Oc2ncnc3c2CCN3c2ccc(S(C)(=O)=O)cc2F)CC1`, the EC50 is 1260 nM.

Turning to `CC(C)OC(=O)N1CCC(Oc2ncnc3c2CCN3c2ccc(C#N)c(F)c2)CC1`, the EC50 is 398 nM.

Regarding `Cc1nc(OC2CCN(C(=O)OC(C)C)CC2)c2c(n1)N(c1ccc(S(C)(=O)=O)cc1F)CC2`, the EC50 was 100 nM.

Consider `CC(C)SC(=O)N1CCC(Oc2ncnc3c2CCN3c2ccc(S(C)(=O)=O)cc2F)CC1`, for which the EC50 is 10 nM.

As to `CCN(CC)C(=O)CN1CCC(Oc2ncnc3c2CCN3c2ccc(S(C)(=O)=O)cc2F)CC1`, the EC50 is over 10000 nM.

Consider `Cc1cc(S(C)(=O)=O)ccc1N1CCc2c(OC3CCN(C(=O)OC(C)C)CC3)ncnc21`, for which the EC50 was 100 nM.

For the compound `CC(C)OC(=O)N1CCC(S(=O)(=O)c2ncnc3c2CCN3c2ccc(S(C)(=O)=O)cc2F)CC1`, the EC50 was over 10000 nM.

Regarding `CSC(=O)N1CCC(Oc2ncnc3c2CCN3c2ccc(S(C)(=O)=O)cc2F)CC1`, the EC50 was 251 nM.

`CC(C)OC(=O)N1CCC(Oc2ncnc3c2CCN3c2ccc(S(C)(=O)=O)cn2)CC1`: the EC50 is 126 nM.

Take `CC(C)OC(=O)N1CCC(Oc2cccc3c2CCN3c2ccc(S(C)(=O)=O)cc2)CC1`: the EC50 was 501 nM.

As to `CC(C)OC(=O)N1CCC(Oc2cccc3c2CCN3c2ccc(S(C)(=O)=O)cc2F)CC1`, the EC50 is 1000 nM.

As to `CC(C)OC(=O)N1CCC(Oc2ncnc3c2CCN3c2ccc([S@@+](C)[O-])cc2F)CC1`, the EC50 is 631 nM.

For the compound `COCCOC(=O)N1CCC(Oc2ncnc3c2CCN3c2ccc(S(C)(=O)=O)cc2F)CC1`, the EC50 was 316 nM.

As to `CC(C)OC(=O)N1CCC(Oc2ncnc3c2CCN3c2ccc(S(C)(=O)=O)c(F)c2)CC1`, the EC50 is 158 nM.

`CCSC(=O)N1CCC(Oc2ncnc3c2CCN3c2ccc(S(C)(=O)=O)cc2F)CC1`: the EC50 was 31.6 nM.

In the case of `Cc1nc(OC2CCN(c3nc(C(C)C)no3)CC2)c2c(n1)N(c1ccc(S(C)(=O)=O)cc1F)CC2`, the EC50 is 251 nM.

With `CC(C)OC(=O)N1CCC(Oc2ncnc3c2CCN3c2ccc(-c3cccn3C)cc2F)CC1`, the EC50 was 158 nM.

For `CC(C)OC(=O)N1CCC(Oc2ncnc3c2CCN3c2ccc(C#N)cn2)CC1`, the EC50 is 794 nM.

For `CC(C)OC(=O)N1CCC(Oc2ncnc3c2CCN3c2ccc(S(C)(=O)=O)cc2)CC1`, the EC50 is 126 nM.

On to `CCCOC(=O)N1CCC(Oc2ncnc3c2CCN3c2ccc(S(C)(=O)=O)cc2F)CC1`, for which the EC50 is 79.4 nM.

Turning to `CNc1nc(OC2CCN(C(=O)OC(C)C)CC2)c2c(n1)N(c1ccc(S(C)(=O)=O)cc1F)CC2`, the EC50 was over 10000 nM.

As to `CSc1ccc(N2CCc3c(OC4CCN(C(=O)OC(C)C)CC4)ncnc32)c(F)c1`, the EC50 was 398 nM.

On to `CC(C)OC(=O)N1CCC(Oc2ncnc3c2CCN3c2ccc(C#N)cc2F)CC1`, for which the EC50 was 63.1 nM.

For `CC(C)OC(=O)N1CCC(N(C)c2ncnc3c2CCN3c2ccc(S(C)(=O)=O)cc2F)CC1`, the EC50 was 631 nM.

With `CC(C)c1noc(N2CCC(Oc3ncnc4c3CCN4c3ccc(S(C)(=O)=O)cc3F)CC2)n1`, the EC50 was 79.4 nM.

On to `CC(C)OC(=O)N1CCC(Oc2ncnc3c2CCN3c2ccc(-c3nccs3)cc2F)CC1`, for which the EC50 was 79.4 nM.

On to `CCS(=O)(=O)N1CCC(Oc2ncnc3c2CCN3c2ccc(S(C)(=O)=O)cc2F)CC1`, for which the EC50 is 1580 nM.

Take `CS(=O)(=O)c1ccc(N2CCc3c(OC4CCN(C(=O)OCCF)CC4)ncnc32)c(F)c1`: the EC50 was 501 nM.

In the case of `CC(C)OC(=O)N1CCC(Oc2ncnc3c2CC(C)N3c2ccc(S(C)(=O)=O)cc2F)CC1` (single isomer, unassigned; (-)), the EC50 was over 10000 nM.

Turning to `CC(C)(C)OC(=O)N1CCC(Oc2cccc3c2ccn3-c2ccc(S(C)(=O)=O)cc2)CC1`, the EC50 is 631 nM.

As to `CC(C)(C)OC(=O)N1CCC(Oc2cccc3c2CCN3c2ccc(S(C)(=O)=O)cc2)CC1`, the EC50 is 158 nM.

In the case of `CC(C)OC(=O)N1CCC(Sc2ncnc3c2CCN3c2ccc(S(C)(=O)=O)cc2F)CC1`, the EC50 was 79.4 nM.

Take `CC(C)OC(=O)N1CCC(Nc2ncnc3c2CCN3c2ccc(S(C)(=O)=O)cc2F)CC1`: the EC50 is 2000 nM.

Take `Cc1nc(OC2CCN(C(=O)OC(C)(C)C)CC2)c2c(n1)N(c1ccc(S(C)(=O)=O)cc1F)CC2`: the EC50 was 126 nM.

Take `CC(C)OC(=O)N1CCC(Oc2ncnc3c2CCN3c2ccc([S@+](C)[O-])cc2F)CC1`: the EC50 is 50.1 nM.

In the case of `CCOC(=O)N1CCC(Oc2ncnc3c2CCN3c2ccc(S(C)(=O)=O)cc2F)CC1`, the EC50 is 251 nM.

On to `CC(C)OC(=O)N1CCC(Oc2ncnc3c2CCN3c2ccc(S(=O)(=O)N(C)C)cc2)CC1`, for which the EC50 was 501 nM.

On to `CC(C)(C)OC(=O)N1CCC(Oc2ncnc3c2CCN3c2ccc(S(C)(=O)=O)cc2F)CC1`, for which the EC50 was 20 nM.

As to `CCCCOC(=O)N1CCC(Oc2ncnc3c2CCN3c2ccc(S(C)(=O)=O)cc2F)CC1`, the EC50 is 50.1 nM.

On to `CC(C)OC(=O)N1CCC(Oc2nc(N)nc3c2CCN3c2ccc(S(C)(=O)=O)cc2F)CC1`, for which the EC50 is 794 nM.

For a further series, the system named is Rattus norvegicus. The experiment in a line: Antihyperglycemic activity in Wistar rat assessed as glucose excursion curve at 10 mg/kg, po by glucose tolerance test. The class given is functional.
Conditions: not given
Turning to `N#C[C@@H]1CCCN1C(=O)CNC12CC3CC(CC(O)(C3)C1)C2`, the result was Active.

Test system in another series: not listed separately
The experiment in a line: AUC (0 to 24 hrs) in rat at 10 mg/kg. The series is classed as ADME, organism-based. The conditions noted are these: plasma. Set-up: time < 24 hr, dose 10 mg/kg.
The AUC(0-t) is the area under the concentration-time curve up to a stated or last time point. A lower AUC(0-t) goes with less exposure. The compound `CC(C)c1noc(N2CCC(Oc3ncnc4c3CCN4c3ccc(S(C)(=O)=O)cc3F)CC2)n1` displayed an AUC(0-t) at 24 h of 500 ng·h/mL.

The next series concerns Mus musculus. The experiment in a line: Dose normalized AUC (0 to 24 hrs) in mouse at 30 mg/kg. The class given is ADME, organism-based. The conditions noted are these: in vivo. Set-up: dose 30 mg/kg.
Compound `CCc1cnc(N2CCC(Oc3ncnc4c3CCN4c3ccc(S(C)(=O)=O)cc3F)CC2)nc1` displayed an AUC/dose of 0.04 µg·h/mL.
